# Measured values from ChEMBL document CHEMBL1132734, “2-Nitro analogues of adenosine and 1-deazaadenosine: synthesis and binding studies at the adenosine A1, A2A and A3 receptor subtypes” (Bioorg Med Chem Lett, 2000).
# Molecular target: T1, Adenosine receptor A3 (Homo sapiens, UniProt P0DMS8)
# T1 sequence (P0DMS8 whole entry): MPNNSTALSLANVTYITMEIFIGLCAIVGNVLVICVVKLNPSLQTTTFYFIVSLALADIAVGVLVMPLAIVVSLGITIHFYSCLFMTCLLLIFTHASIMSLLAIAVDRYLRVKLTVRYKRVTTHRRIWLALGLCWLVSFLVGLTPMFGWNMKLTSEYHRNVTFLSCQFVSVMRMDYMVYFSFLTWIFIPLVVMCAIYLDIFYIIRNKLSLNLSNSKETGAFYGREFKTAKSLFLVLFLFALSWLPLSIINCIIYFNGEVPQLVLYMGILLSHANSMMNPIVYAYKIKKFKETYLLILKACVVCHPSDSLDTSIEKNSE
# Assay: Binding affinity for Adenosine A3 receptor expressed in HEK 293 cells by displacing i[125I]-ABMECA
# Assay type: cell-based, HEK293
row,SMILES,Ki
1,Nc1cc([N+](=O)[O-])nc2c1ncn2[C@@H]1O[C@H](CO)[C@@H](O)[C@H]1O,0.216 µM
2,O=[N+]([O-])c1cc(NC2CCCC2)c2ncn([C@@H]3O[C@H](CO)[C@@H](O)[C@H]3O)c2n1,0.34 µM
3,O=[N+]([O-])c1cc(NCc2cccc(I)c2)c2ncn([C@@H]3O[C@H](CO)[C@@H](O)[C@H]3O)c2n1,0.0098 µM
4,O=[N+]([O-])c1nc(NCc2ccccc2)c2ncn([C@@H]3O[C@H](CO)[C@@H](O)[C@H]3O)c2n1,0.163 µM
5,Nc1nc([N+](=O)[O-])nc2c1ncn2[C@@H]1O[C@H](CO)[C@@H](O)[C@H]1O,0.202 µM
6,O=[N+]([O-])c1nc(NCc2cccc(I)c2)c2ncn([C@@H]3O[C@H](CO)[C@@H](O)[C@H]3O)c2n1,0.012 µM
7,CONc1nc([N+](=O)[O-])nc2c1ncn2[C@@H]1O[C@H](CO)[C@@H](O)[C@H]1O,0.0358 µM
8,O=[N+]([O-])c1nc(NC2CCCC2)c2ncn([C@@H]3O[C@H](CO)[C@@H](O)[C@H]3O)c2n1,0.222 µM

# Molecular target: Adenosine receptor A2a (Rattus norvegicus, UniProt P30543)
# Sequence (P30543 whole entry): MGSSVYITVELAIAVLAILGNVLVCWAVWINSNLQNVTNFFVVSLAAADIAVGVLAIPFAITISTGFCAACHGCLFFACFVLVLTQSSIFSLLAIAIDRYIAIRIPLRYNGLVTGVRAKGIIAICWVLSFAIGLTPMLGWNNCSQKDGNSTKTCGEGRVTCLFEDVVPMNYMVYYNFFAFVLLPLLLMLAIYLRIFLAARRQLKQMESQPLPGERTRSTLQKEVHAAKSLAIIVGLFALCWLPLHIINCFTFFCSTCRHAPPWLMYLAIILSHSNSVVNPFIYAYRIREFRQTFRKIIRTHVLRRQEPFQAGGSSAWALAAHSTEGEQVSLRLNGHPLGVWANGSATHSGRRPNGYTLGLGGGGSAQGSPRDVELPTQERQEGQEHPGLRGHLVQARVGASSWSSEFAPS
# Assay: Binding affinity for adenosine A2A receptor of rat striatal membrane by displacing [3H]-ZM 241385
# Design: species or system Striatum
row,SMILES,Ki
1,Nc1cc([N+](=O)[O-])nc2c1ncn2[C@@H]1O[C@H](CO)[C@@H](O)[C@H]1O,0.437 µM
2,O=[N+]([O-])c1cc(NCc2cccc(I)c2)c2ncn([C@@H]3O[C@H](CO)[C@@H](O)[C@H]3O)c2n1,0.208 µM
3,Nc1nc([N+](=O)[O-])nc2c1ncn2[C@@H]1O[C@H](CO)[C@@H](O)[C@H]1O,0.286 µM
4,O=[N+]([O-])c1nc(NCc2cccc(I)c2)c2ncn([C@@H]3O[C@H](CO)[C@@H](O)[C@H]3O)c2n1,1.44 µM
5,O=[N+]([O-])c1nc(NC2CCCC2)c2ncn([C@@H]3O[C@H](CO)[C@@H](O)[C@H]3O)c2n1,3.51 µM

# Molecular target: Adenosine receptor A2a (Rattus norvegicus) (UniProt P30543)
# Sequence (P30543 whole entry): as above
# Assay: Binding affinity for adenosine A2A receptor of rat striatal membrane by displacing [3H]ZM-241385
row,SMILES,Displacement
1,O=[N+]([O-])c1cc(NC2CCCC2)c2ncn([C@@H]3O[C@H](CO)[C@@H](O)[C@H]3O)c2n1,52%
2,O=[N+]([O-])c1nc(NCc2ccccc2)c2ncn([C@@H]3O[C@H](CO)[C@@H](O)[C@H]3O)c2n1,20%
3,CONc1nc([N+](=O)[O-])nc2c1ncn2[C@@H]1O[C@H](CO)[C@@H](O)[C@H]1O,9%

# Molecular target: T2, Adenosine receptor A1 (Rattus norvegicus, UniProt P25099)
# T2 sequence (P25099 whole entry): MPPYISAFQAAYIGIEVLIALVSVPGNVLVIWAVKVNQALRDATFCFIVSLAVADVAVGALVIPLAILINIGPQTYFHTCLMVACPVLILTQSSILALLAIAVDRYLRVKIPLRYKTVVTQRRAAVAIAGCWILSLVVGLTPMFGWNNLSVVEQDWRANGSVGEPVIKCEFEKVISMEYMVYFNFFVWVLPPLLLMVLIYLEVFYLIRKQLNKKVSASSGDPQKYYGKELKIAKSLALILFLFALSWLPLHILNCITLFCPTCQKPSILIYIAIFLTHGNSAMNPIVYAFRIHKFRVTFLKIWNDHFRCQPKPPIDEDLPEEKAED
# Assay: Binding affinity for Adenosine A1 receptor of rat cortical membrane by displacing [3H]DPCPX
row,SMILES,Ki
1,Nc1cc([N+](=O)[O-])nc2c1ncn2[C@@H]1O[C@H](CO)[C@@H](O)[C@H]1O,0.646 µM
2,O=[N+]([O-])c1cc(NC2CCCC2)c2ncn([C@@H]3O[C@H](CO)[C@@H](O)[C@H]3O)c2n1,0.0526 µM
3,O=[N+]([O-])c1cc(NCc2cccc(I)c2)c2ncn([C@@H]3O[C@H](CO)[C@@H](O)[C@H]3O)c2n1,0.11 µM
4,Nc1nc([N+](=O)[O-])nc2c1ncn2[C@@H]1O[C@H](CO)[C@@H](O)[C@H]1O,0.344 µM
5,O=[N+]([O-])c1nc(NCc2cccc(I)c2)c2ncn([C@@H]3O[C@H](CO)[C@@H](O)[C@H]3O)c2n1,0.138 µM
6,CONc1nc([N+](=O)[O-])nc2c1ncn2[C@@H]1O[C@H](CO)[C@@H](O)[C@H]1O,1.16 µM
7,O=[N+]([O-])c1nc(NC2CCCC2)c2ncn([C@@H]3O[C@H](CO)[C@@H](O)[C@H]3O)c2n1,0.0471 µM
